# Test results reported in ChEMBL document CHEMBL5729588, “Spiro-oxazolones” (2023).
# pKi: −log10 of the molar value.
# Target: Vasopressin V1a receptor (Homo sapiens, UniProt P37288)
# Assay: Pharmacological Assay: The human V1a receptor was cloned by RT-PCR from total human liver RNA. The coding sequence was subcloned in an expression vector after sequencing to confirm the identity of the amplified sequence. […] Cell membranes were prepared from HEK293 cells transiently transfected with the expression vector and grown in 20 liter fermenters with the following protocol. 50 g of cells are re-suspended in 30 ml freshly prepared ice cold Lysis buffer ([…] HEPES. 1 mM EDTA, 10 mM MgCl adjusted to pH=7.4+complete cocktail of protease inhibitor (Roche Diagnostics)). Homogenized with Polytron for 1 min and sonicated on ice for 2×2 minutes at 80% intensity (Vibracell sonicator). The preparation is centrifuged 20 min at 500 g at 4° C., the pellet is discarded and the supernatant centrifuged 1 hour at 43'000 g at 4° C. (19'000 rpm). The pellet is re-suspended in 12.5 ml Lysis buffer+12.5 ml Sucrose 20% and homogenized using a Polytron for 1-2 min. The protein concentration is determined by the Bradford method and aliquots are stored at −80° C. until use. For binding studies 60 mg Yttrium silicate SPA beads (Amersham) are mixed with an aliquot of membrane in binding buffer (50 mM Tris, 120 mM NaCl, 5 mM KCl, 2 mM CaCl, 10 mM MgCl) for 15 minutes with mixing. 50 μl of bead/membrane mixture is then added to each well of a 96 well plate, followed by […] of 4 nM 3H-Vasopressin (American Radiolabeled Chemicals). For total binding measurement 100 μl of binding buffer are added to the respective wells, for non-specific binding 100 μl of 8.4 mM cold vasopressin and for compound testing 100 μl of a serial dilution of each compound in 2% DMSO. The plate is incubated 1 h at room temperature, centrifuged 1 min at 1000 g and counted on a Packard Top-Count. Non-specific binding counts are subtracted from each well and data is normalized to the maximum specific binding set at 100%. To calculate an IC 50 the curve is fitted using a non-linear regression model (XLfit) and the K, is calculated using the Cheng-Prussoff equation.
# Sequence of Vasopressin V1a receptor (P37288 whole entry): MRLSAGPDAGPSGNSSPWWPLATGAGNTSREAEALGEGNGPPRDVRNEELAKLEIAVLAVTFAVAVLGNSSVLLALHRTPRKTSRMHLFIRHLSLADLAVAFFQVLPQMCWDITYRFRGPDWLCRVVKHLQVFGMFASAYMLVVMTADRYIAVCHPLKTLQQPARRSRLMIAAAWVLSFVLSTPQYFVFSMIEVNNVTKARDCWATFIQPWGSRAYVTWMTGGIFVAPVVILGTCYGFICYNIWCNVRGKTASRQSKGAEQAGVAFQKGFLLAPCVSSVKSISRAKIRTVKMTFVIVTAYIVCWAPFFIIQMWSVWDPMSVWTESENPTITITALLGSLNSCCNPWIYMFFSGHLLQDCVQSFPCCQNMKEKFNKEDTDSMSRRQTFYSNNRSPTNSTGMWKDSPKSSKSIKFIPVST
row,SMILES,pKi
1,O=C1OC2(CCN(C3=NC(=O)C4(Cc5ccccc5C4)O3)CC2)c2ccccc21,9.00
2,O=C1N=C(N2CCC3(CC2)OCc2ccccc23)OC12CCCc1ccccc12 (centres undefined),7.30
3,Cc1cc2c(cn1)COC21CCN(C2=NC(=O)C3(Cc4ccccc4C3)O2)CC1,8.00
4,Cc1cc2c(cn1)C1(CCN(C3=NC(=O)C4(Cc5ccccc5C4)O3)CC1)OC2=O,7.80
5,O=C1N=C(N2CCC3(CC2)OCc2ccccc23)OC12Cc1ccc(Cl)cc1C2 (centres undefined),9.00
6,Cc1cc2c(cn1)C(=O)OC21CCN(C2=NC(=O)C3(Cc4ccccc4C3)O2)CC1,7.90
7,Cc1cc2c(cn1)C1(CCN(C3=NC(=O)C4(Cc5ccccc5C4)O3)CC1)OC2,8.50
8,O=C1OC2(CCN(C3=NC(=O)C4(Cc5ccccc5C4)O3)CC2)c2cc(O)ccc21,9.10
9,O=C1N=C(N2CCC3(CC2)OCc2ccccc23)OC12CCc1ccccc1C2 (centres undefined),9.00
